The values that follow come from US10085957B2, “Benzoic acid compounds for reducing uric acid” (Wellstat Therapeutics Corporation, priority 2010, dated 2018).

Molecules are shown by their SMILES. Like-named read-outs stand apart in the source and are kept apart here.

Broadly, the inhibition is the change of the read-out against control, counted positive when it falls.

The target of the experiment is T1, human URAT1 (Homo sapiens, UniProt Q96S37).
T1 construct: The full-length hURAT1 cDNA was obtained from the vector pCMV6-XL5 and subcloned into the expression vector pCMV6-Neo
T1 sequence (Q96S37 1-553): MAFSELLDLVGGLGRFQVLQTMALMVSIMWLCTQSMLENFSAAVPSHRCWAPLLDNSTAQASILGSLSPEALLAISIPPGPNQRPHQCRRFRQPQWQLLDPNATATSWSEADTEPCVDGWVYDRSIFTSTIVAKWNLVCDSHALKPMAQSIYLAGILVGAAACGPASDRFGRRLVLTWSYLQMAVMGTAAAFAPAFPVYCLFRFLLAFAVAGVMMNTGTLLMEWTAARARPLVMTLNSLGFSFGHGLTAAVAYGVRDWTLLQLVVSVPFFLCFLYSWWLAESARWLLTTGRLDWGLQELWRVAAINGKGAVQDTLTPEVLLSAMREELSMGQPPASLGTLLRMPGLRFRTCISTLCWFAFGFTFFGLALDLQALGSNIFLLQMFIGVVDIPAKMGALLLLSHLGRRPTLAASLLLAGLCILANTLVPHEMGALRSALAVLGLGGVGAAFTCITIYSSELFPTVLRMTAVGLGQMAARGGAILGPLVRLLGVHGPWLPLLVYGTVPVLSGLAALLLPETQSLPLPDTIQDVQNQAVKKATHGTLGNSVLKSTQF
The experiment in a line: URAT1 inhibition assay: [8-14C] urate uptake in hURAT1-HEK cells. The class given is cell-based. How it is done:
An in vitro URAT1 assay is useful for identifying compounds with potential activity in lowering serum uric acid. A suitable assay involves transfection of cells (e.g. human embryonic kidney cells; “HEK”) with a vector encoding human URAT1, followed by determination of the ability of transfected cells to take up radiolabeled uric acid. The activity of compounds as URAT1 inhibitors is evaluated by their ability to block uric acid uptake by transfected cells.
Plasmid vector pCMV6-XL5 containing hURAT1 cDNA (Cat. No. SC125624) and the expression vector pCMV6-Neo (Cat. No.pCMVNEO) were obtained from OriGene Technologies, Inc. The full-length hURAT1 cDNA was obtained from the vector pCMV6-XL5 and subcloned into the expression vector pCMV6-Neo to create the hURAT1 expression plasmid pCMV6-hURAT1. The sequences were verified by automatic DNA sequencing.
Human embryonic kidney 293 (HEK) cells (ATTCC, Cat No. CRL-1573) were cultured in EMEM supplemented with 10% FBS and 2 mM L-glutamine and incubated at 37° C. and 5% CO2. For transfection experiments, cells were plated on 60 mm dishes in 1 ml media per dish. After an 18-24 hour incubation, cells were transfected with plasmid pCMV6-hURAT1 or the expression vector pCMV6-Neo, using the Lipofectin trasfection agent following the manufacturer's instructions (Invitrogen, Cat.No. 18292). After transfection cells were grown in EMEM media for 72 hours and then by adding lmg/ml Geneticin (GIBCO, Cat. No 10131) stable transfectants were selected. Stable transfectants expressing hURAT1 (herein after referred as hURAT1-HEK cells) or cells having only the expression vector pCMV6-Neo (herein after referred as mock-HEK cells) were verified using reverse transcription polymerase chain reaction (RT-PCR) methods.
hURAT1-HEK cells and mock-HEK cells were plated in poly-D-Lysine Cell culture 24 well plates (Becton Dickinson, Cat. No. 354414) at a concentration of 3×10^5 in EMEM medium and incubated overnight. Reaction solutions containing the [8-^14C] urate (55 mCi/mmol) at a final concentration of 50 μM were prepared with or without test compounds in Hanks' balanced salt solution (HBSS) containing 125 mM sodium gluconate, 4.8 mM potassium gluconate, 1.3 mM calcium, 5.6 mM glucose, 1.2 mM magnesium sulfate, 1.2 mM KH2PO4 and 25 mM HEPES (pH7.4). Before the uptake assay started, the culture medium was removed and the cells were incubated for 5 min in 0.6 ml of HBSS. After that HBSS was removed, the prepared reaction solutions were added into each well and incubated for 5 min at room temperature. Then the reaction solution was removed, cells were washed twice with 0.6 ml of cold HBSS and lysed with 0.2 ml of 0.1 M NaOH for 20 min. The cell lysates were transferred into the scintillation vials containing 1 ml of scintillation fluid (Opti Phase SuperMIX, PerkinElmer, Cat No. 1200-439) and the radioactivity was counted in the Microbeta counter (1450, Wallac Jet, PerkinElmer). Test compounds were dissolved in DMSO and the same concentration of DMSO was added into the wells of mock-HEK cells and the hURAT1-HEK cells that didn't contain test compounds. For each test compound, the uptake assay was performed 2 times and carried out in triplicate. Urate uptake of the cells for each test condition was presented as the average percent inhibition in comparison to the DMSO control. The radioactivity values obtained for the wells that contained DMSO were taken as 100% uptake of the cells. The observed concentration-percent inhibition data were fitted to a sigmoidal concentration-effect model, where: % Inhibition=(100*Conc^Slope)/(IC50^Slope+Conc^Slope)
IC50 and slope estimates with their 95% confidence limits were determined by a non-linear, least-squares regression analysis using the Data Analysis Toolbox™ (MDL Information Systems, San Leandro, Calif., USA). […]

Setting [1] is: 10 μM test compound, 14C urate uptake in hURAT1-HEK cells, vs DMSO control, read-out: % of inhibition (at 10 μM).

For `COc1ccc(C(=O)O)cc1OCc1c(C)cccc1C` [Compound FC, 3-(2,6-dimethylbenzyloxy)-4-methoxybenzoic acid], the inhibition at 10 µM runs as follows: under setting [1], 89.2%; (concentration 10 μM, urate uptake in hURAT1-HEK cells (Table 2), read-out: % of inhibition Avg.) 93.3%. Also, the inhibition at 0.05 µM (concentration 0.05 μM, urate uptake in hURAT1-HEK cells) was found to be 7.08%. In addition, under “concentration 0.1 μM, urate uptake in hURAT1-HEK cells”, the inhibition at 0.1 µM was -1.08%. In addition, under “concentration 0.5 μM, urate uptake in hURAT1-HEK cells”, the inhibition at 0.5 µM came to 34.6%. Also, under “concentration 1 μM, urate uptake in hURAT1-HEK cells”, the inhibition at 1 µM amounted to 49.8%. For the same compound, the inhibition at 100 µM (concentration 100 μM, urate uptake in hURAT1-HEK cells) was 97.8%.

Consider `Cc1ccc(CC(=O)O)cc1OCc1c(C)cccc1C` [EH, 2-(3-(2,6-Dimethylbenzyloxy)-4-methylphenyl)acetic acid, reference compound], for which, under setting [1], the inhibition at 10 µM was determined as 95.6%.

Turning to `Cc1ccc(C(=O)O)cc1OCc1c(C)cccc1C` [FA, 3-(2,6-dimethylbenzyloxy)-4-methylbenzoic acid], the inhibition at 10 µM under setting [1] came to 83.2%.

In the case of `Cc1cccc(C)c1COc1cc(C(=O)O)ccc1F` [FD, 3-(2,6-dimethylbenzyloxy)-4-fluorobenzoic acid], the inhibition at 10 µM under setting [1] stood at 68.1%.

On to `Cc1cccc(C)c1COc1cc(C(=O)O)ccc1[N+](=O)[O-]` [FB, 3-(2,6-dimethylbenzyloxy)-4-nitrobenzoic acid], for which, under setting [1], the inhibition at 10 µM was 81%.

Turning to `Cc1cccc(C)c1COc1cc(C(=O)O)ccc1N` [FE, 4-amino-3-(2,6-dimethylbenzyloxy)benzoic acid], the inhibition at 10 µM under setting [1] was 10%.
